# Measurements taken from patent publication US20100227853A1, “INHIBITORS OF CYCLIC AMP PHOSPHODIESTERASES” (Trustees of Boston College, priority 2008, published 2010).
# Columns and labels:
# [1] = molecular target: T1, PDE4A1 (Mus musculus, UniProt O89084); test: 5FOA growth assay (high throughput screen, ED50) in fission yeast strain expressing PDE4A1; type: cell-based; conditions: 20 uM; PDE 4A1
# T1 construct: targets used in the assays are full-length proteins (as opposed to simply the catalytic domain); expressed in transfected cells; host or cells: Schizosaccharomyces pombe, PDE gene integrated in place of cgs2
# T1 sequence (O89084 1-610 isoform O89084-2): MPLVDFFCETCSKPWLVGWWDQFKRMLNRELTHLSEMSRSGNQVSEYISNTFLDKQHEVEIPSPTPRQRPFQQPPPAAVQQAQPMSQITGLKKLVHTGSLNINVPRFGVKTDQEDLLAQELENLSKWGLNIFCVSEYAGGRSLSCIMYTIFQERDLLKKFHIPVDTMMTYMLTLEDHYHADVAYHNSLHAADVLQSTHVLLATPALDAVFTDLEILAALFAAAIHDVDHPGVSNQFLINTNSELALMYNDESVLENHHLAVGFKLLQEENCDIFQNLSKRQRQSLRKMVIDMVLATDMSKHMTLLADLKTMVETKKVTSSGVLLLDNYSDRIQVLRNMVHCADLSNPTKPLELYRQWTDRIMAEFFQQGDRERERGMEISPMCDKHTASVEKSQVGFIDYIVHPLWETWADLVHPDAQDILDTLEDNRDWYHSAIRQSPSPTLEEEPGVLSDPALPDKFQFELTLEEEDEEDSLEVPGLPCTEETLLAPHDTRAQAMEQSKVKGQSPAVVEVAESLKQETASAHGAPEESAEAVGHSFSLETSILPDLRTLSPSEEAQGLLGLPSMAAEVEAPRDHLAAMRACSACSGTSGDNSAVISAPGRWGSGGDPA
# Procedure: (§1) High throughput drug screens were carried out at the Broad Institute's Chemical Biology Program screening facility (Broad Institute, Cambridge, Mass.). Depending upon the strain, cultures were pregrown to exponential phase in EMM complete medium containing from 0.5 to 2.5 mM cAMP to repress fbp1-ura4 transcription. […] Starting cell concentrations ranged from 0.5×10^5 to 4×10^5 cells/ml depending on the screening strain. […] Other positive control dishes contained 5 mM cAMP in the 5FOA medium. Cultures were grown for 48 hours at 30° C., sealed in an airtight container with moist paper towels to prevent evaporation. Optical densities (OD600) of cultures were measured using a microplate reader. Bioinformatic analysis of the results to determine composite Z scores was performed as previously described^30, 31.
# (§2) To determine whether the 5FOA growth phenotype could be exploited for high throughput drug screening, strains expressing PDE2A, PDE4A, PDE4B, or PDE8A were pre-grown in EMM medium containing cAMP and then transferred to 5FOA medium in 384 well microtiter plates in the presence or absence of cAMP. OD600 measurements were taken after 48 hours incubation at 30° C.
# (§3) Cells were pregrown in EMM medium [MP Biomedicals (Solon, Ohio), 3% glucose, filter-sterilized to avoid carmelization, which would introduce variability into the optical density of the medium] containing from 0 mM to 2.5 mM cAMP (or either 0.5 mM or 1.0 mM cGMP). This was to repress expression of the fbp1-ura4 reporter prior to exposure of cells to 5FOA medium. Cells were grown at 30° C. to exponential phase (approximately 10^7 cells/ml). […] Starting cell concentrations ranged from 0.5×10^5 to 4×10^5 cells/ml depending on the screening strain. […] Other positive control dishes contained 5 mM cAMP in the 5FOA medium for PDEs that lack appropriate control compounds. Cultures were grown for 48 hours at 30° C., sealed in an airtight container with moist paper towels to prevent evaporation. Optical densities (OD600) of cultures were measured using a microplate reader. Bioinformatic analysis of the results to determine composite Z scores was performed as previously described (1, 3).
# [2] = tested on: PDE4A, PDE4B, PDE4D, PDE7A, PDE7B, PDE8A, PDE3A; test: Summary of PDE inhibitor profile; set-up: key to PDE inhibitor profile (Table 17): (1): Strong PDE4A, PDE4B inhibitor; (2): Strong PDE4A inhibitor; (3): Strong PDE4B, moderate PDE4A inhibitor; (4): Moderate PDE4A, PDE4B inhibitor; (5): Moderate PDE4B inhibitor; key to inhibitor class, Table 15: (1): Strong PDE4A5 inhibitor; (2): Strong PDE4A, 4B inhibitor; Moderate PDE4D inhibitor; (3): Strong PDE4A. 4B inhibitor; (4): Strong PDE4A, 4B, PDE7A inhibitor: Weak PDE4D inhibitor; conditions: for PDE inhibitor profile (Table 17): overall classification, Table 17 footnotes
# [3] = molecular target: T2, PDE4B3 (Mus musculus, UniProt Q8VBU5); test: 5FOA growth assay in fission yeast strain expressing PDE4B3; type: cell-based, Murine; conditions: 20 uM
# T2 construct: targets used in the assays are full-length proteins (as opposed to simply the catalytic domain); expressed in transfected cells; host or cells: Schizosaccharomyces pombe, PDE gene integrated in place of cgs2
# T2 sequence (Q8VBU5 1-721): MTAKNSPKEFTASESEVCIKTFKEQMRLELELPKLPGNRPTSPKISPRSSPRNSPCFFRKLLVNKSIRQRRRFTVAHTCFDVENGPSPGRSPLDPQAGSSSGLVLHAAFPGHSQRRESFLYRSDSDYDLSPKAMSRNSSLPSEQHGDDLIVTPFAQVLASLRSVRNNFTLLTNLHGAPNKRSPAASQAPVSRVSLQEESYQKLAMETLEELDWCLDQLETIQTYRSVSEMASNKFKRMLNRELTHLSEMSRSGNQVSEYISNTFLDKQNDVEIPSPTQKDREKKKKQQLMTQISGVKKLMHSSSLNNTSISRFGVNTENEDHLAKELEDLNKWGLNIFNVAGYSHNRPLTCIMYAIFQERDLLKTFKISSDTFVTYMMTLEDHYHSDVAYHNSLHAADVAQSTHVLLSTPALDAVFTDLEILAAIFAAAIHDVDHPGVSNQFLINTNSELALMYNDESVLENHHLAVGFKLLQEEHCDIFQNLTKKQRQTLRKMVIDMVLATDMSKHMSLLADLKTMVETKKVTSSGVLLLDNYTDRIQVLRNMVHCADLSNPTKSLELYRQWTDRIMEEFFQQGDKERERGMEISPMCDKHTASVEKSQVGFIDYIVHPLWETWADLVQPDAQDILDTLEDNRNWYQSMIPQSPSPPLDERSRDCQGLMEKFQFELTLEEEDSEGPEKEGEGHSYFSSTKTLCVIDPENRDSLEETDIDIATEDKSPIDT
# Procedure: as §1, §2, §3
# [4] = molecular target: T3, PDE4A5 (Rattus norvegicus, UniProt P54748); test: 5FOA growth assay in fission yeast strain expressing PDE4A5; type: cell-based; conditions: 20 uM
# T3 construct: targets used in the assays are full-length proteins (as opposed to simply the catalytic domain); expressed in transfected cells; host or cells: Schizosaccharomyces pombe, PDE gene integrated in place of cgs2
# T3 sequence (P54748 1-844): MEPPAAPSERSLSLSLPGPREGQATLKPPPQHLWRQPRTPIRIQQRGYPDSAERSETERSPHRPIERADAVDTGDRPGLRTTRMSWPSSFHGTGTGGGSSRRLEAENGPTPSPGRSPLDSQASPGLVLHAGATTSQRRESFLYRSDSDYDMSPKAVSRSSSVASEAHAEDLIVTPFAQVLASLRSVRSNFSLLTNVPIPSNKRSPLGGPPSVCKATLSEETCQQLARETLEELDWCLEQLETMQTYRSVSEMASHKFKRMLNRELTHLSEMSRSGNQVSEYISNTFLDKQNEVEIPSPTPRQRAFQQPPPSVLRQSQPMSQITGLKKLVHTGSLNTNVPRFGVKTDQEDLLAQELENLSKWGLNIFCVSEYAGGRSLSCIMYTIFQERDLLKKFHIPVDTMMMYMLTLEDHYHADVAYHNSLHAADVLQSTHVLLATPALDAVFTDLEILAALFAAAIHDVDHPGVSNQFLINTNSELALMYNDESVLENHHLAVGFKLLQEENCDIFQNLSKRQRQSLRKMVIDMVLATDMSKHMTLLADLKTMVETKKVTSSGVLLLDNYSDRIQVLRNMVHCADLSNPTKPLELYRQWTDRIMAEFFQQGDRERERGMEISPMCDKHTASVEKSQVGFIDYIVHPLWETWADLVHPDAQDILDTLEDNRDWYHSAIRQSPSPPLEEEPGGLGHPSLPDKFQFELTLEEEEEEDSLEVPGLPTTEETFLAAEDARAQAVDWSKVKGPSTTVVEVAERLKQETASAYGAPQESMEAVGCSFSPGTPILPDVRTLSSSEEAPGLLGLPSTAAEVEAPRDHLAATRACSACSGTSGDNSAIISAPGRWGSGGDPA
# Procedure: High throughput drug screens were carried out at the Broad Institute's Chemical Biology Program screening facility (Broad Institute, Cambridge, Mass.). Depending upon the strain, cultures were pregrown to exponential phase in EMM complete medium containing from 0.5 to 2.5 mM cAMP to repress fbp1-ura4 transcription. Cells were collected by centrifugation, resuspended in 5FOA medium, and 25 μl were transferred to 384-well microtiter dishes (untreated, with flat clear bottoms) that had been pre-filled with 25 μl 5FOA medium and pre-pinned with 100 nl of compounds (stock solutions were generally 10 mM) from a subset of the Prestwick Bioactive and the Microsource Spectrum compound libraries. Starting cell concentrations ranged from 0.5×10^5 to 4×10^5 cells/ml depending on the screening strain. […] Other positive control dishes contained 5 mM cAMP in the 5FOA medium. Cultures were grown for 48 hours at 30° C., sealed in an airtight container with moist paper towels to prevent evaporation. Optical densities (OD600) of cultures were measured using a microplate reader. Bioinformatic analysis of the results to determine composite Z scores was performed as previously described^30, 31.
# Cells were pregrown in EMM medium [MP Biomedicals (Solon, Ohio), 3% glucose, filter-sterilized to avoid carmelization, which would introduce variability into the optical density of the medium] containing from 0 mM to 2.5 mM cAMP (or either 0.5 mM or 1.0 mM cGMP). This was to repress expression of the fbp1-ura4 reporter prior to exposure of cells to 5FOA medium. Cells were grown at 30° C. to exponential phase (approximately 10^7 cells/ml). Cells were collected by centrifugation and resuspended in 5FOA medium, and 25 μl were transferred to 384-well microtiter dishes (untreated, with flat clear bottoms) that had been pre-filled with 25 μl 5FOA medium and pre-pinned with 100 nl of compounds (stock solutions were generally 10 mM). Starting cell concentrations ranged from 0.5×10^5 to 4×10^5 cells/ml depending on the screening strain. […] Other positive control dishes contained 5 mM cAMP in the 5FOA medium for PDEs that lack appropriate control compounds. Cultures were grown for 48 hours at 30° C., sealed in an airtight container with moist paper towels to prevent evaporation. Optical densities (OD600) of cultures were measured using a microplate reader. Bioinformatic analysis of the results to determine composite Z scores was performed as previously described (1, 3).
SMILES,1 Assay (20 uM) 4A1 [1],PDE inhibitor profile (Table 17) [2],1 Assay (20 uM) 4B3 ([3]; PDE 4B3),"inhibitor class, Table 15 [2]",also measured
"CCn1c2ccccc2c2nc3ccccc3nc21 [1422, G02]",70.89 ND ND ND ND,"1422, G02 (1)",103.69 ND ND ND ND,–,–
"CC(C)n1c2ccccc2c2nc3ccccc3nc21 [1422, I02]",56.62 ND ND ND ND,"1422, I02 (1)",99.04 ND ND ND ND,–,–
"CCCn1c2ccccc2c2nc3ccccc3nc21 [1422, K02]",72.21 ND ND ND ND,"1422, K02 (1)",115.27 ND ND ND ND,–,–
"CC(C)Cn1c2ccccc2c2nc3ccccc3nc21 [1422, M02]",40.53 ND ND ND ND,"1422, M02 (2)",86.04 ND ND ND ND,–,–
"C=CCn1c2ccccc2c2nc3ccccc3nc21 [1427, P20]",31.38 ND ND ND ND,"1427, P20 (3)",103.46 ND ND ND ND,–,–
"O=C(O)Cn1c2ccc(Cl)cc2c2nc3ccccc3nc21 [1429, L06]",29.15 ND ND ND ND,"1429, L06 (4)",41.77 ND ND ND ND,–,–
"COC(=O)c1sc(SC)c(C#N)c1-c1ccco1 [2055, C21]",–,–,–,–,1 Assay (20 uM) 4A5 [4]: 2.07 ND ND ND ND; 1 Assay (20 uM) 4B3 [3]: 21.4955 ND ND ND ND
"CCOC(=O)c1sc2sc(C(=O)OCC)c(-c3ccc(Cl)cc3)c2c1N [2055, N01]",–,–,–,–,1 Assay (20 uM) 4A5 [4]: 0.582 ND ND ND ND; 1 Assay (20 uM) 4B3 [3]: 1.8421 ND ND ND ND
COC(=O)C1=C(C)N(C)C(=O)/C1=C\c1cccs1 [Compound 27-1],–,–,–,27-1 (1),–
COC(=O)C1=C(C)N(CC(C)C)C(=O)/C1=C\c1ccco1 [Compound 27-2],–,–,–,27-2 (2),–
COC(=O)C1=C(C)N(CC(C)C)C(=O)/C1=C\c1cccs1 [Compound 27-3],–,–,–,27-3 (1),–
COC(=O)C1=CN(Cc2ccccc2)C(=O)/C1=C\c1cccs1 [Compound 27-4],–,–,–,27-4 (1),–
COC(=O)C1=C(C)N(c2cccc(C)c2)C(=O)/C1=C\c1cccs1 [Compound 27-5],–,–,–,27-5 (2),–
COC(=O)C1=C(C)N(c2ccc(F)cc2)C(=O)/C1=C\c1cccs1 [Compound 27-6],–,–,–,27-6 (4),–
COC(=O)C1=C(C)N(c2cccc(C(F)(F)F)c2)C(=O)/C1=C\c1cccs1 [Compound 27-7],–,–,–,27-7 (3),–
COC(=O)C1=C(C)N(c2ccccc2Cl)C(=O)/C1=C\c1cccs1 [Compound 27-8],–,–,–,27-8 (2),–
